The text below walks through data of patent US11000033B2, “Ketone or oxime compound, and herbicide” (NISSAN CHEMICAL CORPORATION, priority 2014, dated 2021).

What all share (type): in vivo
For data set [1], the system named is Echinochloa oryzacola Vasing. Nature of the data set: Test Example 1: herbicidal activity, application before weed generation in submerged conditions (symbol A). Conditions: application herbicide amount 320 g/ha. Summed up: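 Weeds are sown into submerged alluvial soil alongside transplanted 2.5-leaf rice, and the compound, as an emulsion diluted to a set rate, is applied onto the water before emergence. Rating on the 0–5 herbicidal-ratio scale follows 3 weeks of greenhouse growth at 25–30 °C.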

A further data set concerns transplanted rice plant. Nature of the data set: Test Example 1: effect on crop, application before weed generation in submerged conditions (symbol a). The note with it: application herbicide amount 320 g/ha. The procedure, abridged: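 Alluvial soil pots flooded to 4 cm water, sown with Echinochloa oryzacola, Scirpus juncoides and Monochoria vaginalis, then transplanted with 2.5 leaf stage rice seedlings; pre-emergence application. Greenhouse 25° C. to 30° C.; scored 0–5 by herbicidal ratio 3 weeks after application.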

The test system of the next data set is Scirpus juncoides. Nature of the data set: Test Example 2: herbicidal activity, application during weed generation in submerged conditions (symbol B). Conditions: Table 23; application herbicide amount 320 g/ha; grade 0-5 by criteria of Test Example 1. Summed up:
(§1)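 Visual herbicidal ratings, taken three weeks after dosing, reflect post-emergence water-surface application to seedlings at one to two leaves. Conditions: co-sown weeds in alluvial soil flooded to 4 cm, greenhouse held at 25° C. to 30° C.; compound given as water-diluted emulsion at a fixed herbicide amount.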

A further data set concerns Monochoria vaginalis. Nature of the data set: Test Example 2: herbicidal activity, application during weed generation in submerged conditions (symbol C). The note with it: Table 23; application herbicide amount 320 g/ha; grade 0-5 by criteria of Test Example 1. Summed up: as §1
The next data set has as its system Cyperus difformis. Nature of the data set: Test Example 3: herbicidal effect by foliage application, Wagner pot (symbol E). The note with it: application herbicide amount 320 g/ha. The procedure, abridged: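 Herbicidal activity was rated three weeks after a foliar spray of diluted emulsion concentrate, applied at a predetermined dose to plants grown for 14 days from seed in waterlogged alluvial soil within a 25–30 °C greenhouse.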

Data set [2] deals with directly sowed rice plant. Nature of the data set: Test Example 3: effect on crop by foliage application, Wagner pot (symbol b). Conditions: application herbicide amount 320 g/ha. Summed up:
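Plants are raised from seed in flooded paddy conditions: water stands 0.1–0.5 cm over alluvial soil, and the pot is kept in a greenhouse at 25–30 °C. Species sown are barnyardgrass (E. crus-galli var. crus-galli), Leptochloa chinensis, Cyperus difformis and rice.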

The subject of a further data set is soybean. Briefly: Test Example 4: effect on crop by soil treatment (symbol d). The note with it: application herbicide amount 320 g/ha. The procedure, abridged:
(§2)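 Seeds were sown in spots on sterilized diluvial soil in a plastic box and covered with about 1.5 cm of soil. Plants were then grown in a greenhouse at 25° C. to 30° C.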

A further data set relates to rice. Briefly: Test Example 4: effect on crop by soil treatment (symbol b). Conditions: application herbicide amount 320 g/ha. The procedure, abridged:
as §2

Another data set relates to wheat. Briefly: Test Example 4: effect on crop by soil treatment (symbol e). The note with it: application herbicide amount 320 g/ha. The procedure, abridged:
as §2

A further data set concerns Avena fatua. Briefly: Test Example 5: herbicidal effect by foliage application, plastic box (symbol I). Conditions: 320 g/ha, 3 weeks after application. The procedure, abridged:
(§3)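 Effect is rated 3 weeks after a foliar spray of water-diluted emulsion concentrate at a predetermined herbicide amount. Plants had grown 14 days in a 25° C. to 30° C. greenhouse from seed in sterilized diluvial soil.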

In the next data set the test system is Lolium multiflorum Lam. Briefly: Test Example 5: herbicidal effect by foliage application, plastic box (symbol K). The note with it: 320 g/ha, 3 weeks after application. Summed up: as §3
The next data set deals with Chenopodium album. Nature of the data set: Test Example 5: herbicidal effect by foliage application, plastic box (symbol O). The note with it: 320 g/ha, 3 weeks after application. The procedure, abridged: as §3
The next data set deals with corn. Briefly: Test Example 5: effect on crop by foliage application, plastic box (symbol c). Conditions: 320 g/ha, 3 weeks after application. Summed up:
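Soil: sterilized diluvial. Container: plastic box, 21 × 13 cm, 7 cm deep. Sowing: spot-like, ~1.5 cm cover. Growth: greenhouse, 25° C. to 30° C.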

In the case of `CON=C(C)CC1CC(OC(=O)C2(C)CC2(Cl)Cl)=C(c2c(C)cc(C)cc2C)C1=O` (centres unmarked) [1-036], the “Herbicidal effect grade, A: Echinochloa oryzacola Vasing.” value in data set [1] is 5 (Herbicidal ratio of 90% or more (almost completely withered)). For the same molecule, in the data set with transplanted rice plant, the “Effect grade on crop, a: transplanted rice plant” value (from here on “Effect grade on crop”) is 5 (Herbicidal ratio of 90% or more (almost completely withered)). The “Herbicidal effect grade, B: Scirpus juncoides” value (shortened to “Herbicidal effect grade, B”) in the data set with Scirpus juncoides was 4 (Herbicidal ratio of 70% or higher and lower than 90%). In addition, in the data set with Monochoria vaginalis, the “Herbicidal effect grade, C: Monochoria vaginalis” value (from here on “Herbicidal effect grade, C”) is 2 (Herbicidal ratio of 20% or higher and lower than 40%). For the same molecule, the “herbicidal effect on E, grade 0-5” value in the data set on Cyperus difformis was 5 (Herbicidal ratio of 90% or more (almost completely withered)). The “effect on crop b (directly sowed rice plant), grade 0-5” value (“effect on crop b” for short) in data set [2] is on record as 5 (Herbicidal ratio of 90% or more (almost completely withered)). In addition, the “d (soybean) effect on crop grade” value in the data set on soybean is on record as 0 (Herbicidal ratio of 5% or lower (almost no effect)). Besides, the “b (directly sowed rice plant) effect on crop grade” value in the data set with rice is reported as 5 (Herbicidal ratio of 90% or more (almost completely withered)). The “e (wheat) effect on crop grade” value in the data set on wheat is 3 (Herbicidal ratio of 40% or higher and lower than 70%). Also, in the data set on Avena fatua, the “I: Avena fatua, herbicidal effect grade” value was 5 (Herbicidal ratio of 90% or more (almost completely withered)). Further, the “K: Lolium multiflorum Lam., herbicidal effect grade” value with Lolium multiflorum Lam. is listed as 5 (Herbicidal ratio of 90% or more (almost completely withered)). The “O: Chenopodium album, herbicidal effect grade” value (shortened to “O: Chenopodium album”) in the data set with Chenopodium album is 2 (Herbicidal ratio of 20% or higher and lower than 40%). In addition, the “c: corn, effect on crop grade” value with corn is 1 (Herbicidal ratio of 5% or higher and lower than 20%).
Take `COCCOC1=C(c2c(C)cc(C)cc2C)C(=O)C(CC(C)=NOC)C1` (centres unmarked) [1-037]: the “Herbicidal effect grade, A: Echinochloa oryzacola Vasing.” value in [1] is on record as 0 (Herbicidal ratio of 5% or lower (almost no effect)). The “Effect grade on crop” value in the data set with transplanted rice plant is given as 0 (Herbicidal ratio of 5% or lower (almost no effect)). Also, in the data set with Scirpus juncoides, the “Herbicidal effect grade, B” value is reported as 0 (Herbicidal ratio of 5% or lower (almost no effect)). Besides, the “Herbicidal effect grade, C” value with Monochoria vaginalis is 0 (Herbicidal ratio of 5% or lower (almost no effect)). The “herbicidal effect on E, grade 0-5” value in the data set with Cyperus difformis is on record as 0 (Herbicidal ratio of 5% or lower (almost no effect)). Besides, the “effect on crop b” value in data set [2] was 0 (Herbicidal ratio of 5% or lower (almost no effect)). For the same molecule, the “d (soybean) effect on crop grade” value in the data set on soybean is recorded as 0 (Herbicidal ratio of 5% or lower (almost no effect)). For the same molecule, the “b (directly sowed rice plant) effect on crop grade” value with rice is 0 (Herbicidal ratio of 5% or lower (almost no effect)). Further, the “e (wheat) effect on crop grade” value in the data set with wheat is 0 (Herbicidal ratio of 5% or lower (almost no effect)). Besides, the “I: Avena fatua, herbicidal effect grade” value in the data set with Avena fatua was 0 (Herbicidal ratio of 5% or lower (almost no effect)). The “K: Lolium multiflorum Lam., herbicidal effect grade” value in the data set with Lolium multiflorum Lam. is recorded as 0 (Herbicidal ratio of 5% or lower (almost no effect)). Moreover, the “O: Chenopodium album” value with Chenopodium album was 0 (Herbicidal ratio of 5% or lower (almost no effect)). In addition, the “c: corn, effect on crop grade” value with corn is 0 (Herbicidal ratio of 5% or lower (almost no effect)).
Regarding `CCC(CC1CC(O)=C(c2c(C)cc(C)cc2C)C1=O)=NOC` (centres unmarked) [1-038], the “Herbicidal effect grade, A: Echinochloa oryzacola Vasing.” value in data set [1] is recorded as 5 (Herbicidal ratio of 90% or more (almost completely withered)). Also, in the data set with transplanted rice plant, the “Effect grade on crop” value is 5 (Herbicidal ratio of 90% or more (almost completely withered)). The “Herbicidal effect grade, B” value in the data set with Scirpus juncoides is 5 (Herbicidal ratio of 90% or more (almost completely withered)). Besides, in the data set on Monochoria vaginalis, the “Herbicidal effect grade, C” value was 4 (Herbicidal ratio of 70% or higher and lower than 90%). In addition, the “herbicidal effect on E, grade 0-5” value in the data set with Cyperus difformis was 5 (Herbicidal ratio of 90% or more (almost completely withered)). The “effect on crop b” value in [2] is 5 (Herbicidal ratio of 90% or more (almost completely withered)). In addition, the “d (soybean) effect on crop grade” value in the data set with soybean was 1 (Herbicidal ratio of 5% or higher and lower than 20%). Besides, the “b (directly sowed rice plant) effect on crop grade” value in the data set on rice is given as 5 (Herbicidal ratio of 90% or more (almost completely withered)). In addition, the “e (wheat) effect on crop grade” value in the data set with wheat was 3 (Herbicidal ratio of 40% or higher and lower than 70%). Further, in the data set with Avena fatua, the “I: Avena fatua, herbicidal effect grade” value is listed as 5 (Herbicidal ratio of 90% or more (almost completely withered)). Moreover, in the data set on Lolium multiflorum Lam., the “K: Lolium multiflorum Lam., herbicidal effect grade” value was 5 (Herbicidal ratio of 90% or more (almost completely withered)). In addition, the “O: Chenopodium album” value with Chenopodium album is listed as 0 (Herbicidal ratio of 5% or lower (almost no effect)). The “c: corn, effect on crop grade” value in the data set with corn was 4 (Herbicidal ratio of 70% or higher and lower than 90%).
On to `COCC(CC1CC(O)=C(c2c(C)cc(C)cc2C)C1=O)=NOC` (centres unmarked) [1-040], for which the “Herbicidal effect grade, A: Echinochloa oryzacola Vasing.” value in [1] was 3 (Herbicidal ratio of 40% or higher and lower than 70%). Moreover, in the data set on transplanted rice plant, the “Effect grade on crop” value is 4 (Herbicidal ratio of 70% or higher and lower than 90%). The “Herbicidal effect grade, B” value with Scirpus juncoides is on record as 0 (Herbicidal ratio of 5% or lower (almost no effect)). In the data set with Monochoria vaginalis, the “Herbicidal effect grade, C” value is given as 0 (Herbicidal ratio of 5% or lower (almost no effect)). The “herbicidal effect on E, grade 0-5” value in the data set on Cyperus difformis was 4 (Herbicidal ratio of 70% or higher and lower than 90%). Besides, in data set [2], the “effect on crop b” value is 5 (Herbicidal ratio of 90% or more (almost completely withered)). For the same molecule, the “d (soybean) effect on crop grade” value with soybean is given as 0 (Herbicidal ratio of 5% or lower (almost no effect)). Also, in the data set with rice, the “b (directly sowed rice plant) effect on crop grade” value is reported as 5 (Herbicidal ratio of 90% or more (almost completely withered)). In addition, the “e (wheat) effect on crop grade” value in the data set on wheat was 0 (Herbicidal ratio of 5% or lower (almost no effect)). Also, in the data set with Avena fatua, the “I: Avena fatua, herbicidal effect grade” value is 4 (Herbicidal ratio of 70% or higher and lower than 90%). The “K: Lolium multiflorum Lam., herbicidal effect grade” value in the data set on Lolium multiflorum Lam. is 5 (Herbicidal ratio of 90% or more (almost completely withered)). Also, the “O: Chenopodium album” value with Chenopodium album is reported as 0 (Herbicidal ratio of 5% or lower (almost no effect)). In the data set with corn, the “c: corn, effect on crop grade” value is 3 (Herbicidal ratio of 40% or higher and lower than 70%).
Take `COCCON=C(C)CC1CC(O)=C(c2c(C)cc(C)cc2C)C1=O` (centres unmarked) [1-041]: the “Herbicidal effect grade, A: Echinochloa oryzacola Vasing.” value in [1] is 5 (Herbicidal ratio of 90% or more (almost completely withered)). Also, the “Effect grade on crop” value in the data set on transplanted rice plant is reported as 5 (Herbicidal ratio of 90% or more (almost completely withered)). In the data set on Scirpus juncoides, the “Herbicidal effect grade, B” value is recorded as 0 (Herbicidal ratio of 5% or lower (almost no effect)). Moreover, the “Herbicidal effect grade, C” value in the data set on Monochoria vaginalis is given as 0 (Herbicidal ratio of 5% or lower (almost no effect)). Moreover, the “herbicidal effect on E, grade 0-5” value with Cyperus difformis was 5 (Herbicidal ratio of 90% or more (almost completely withered)). Moreover, the “effect on crop b” value in data set [2] was 5 (Herbicidal ratio of 90% or more (almost completely withered)). Further, the “d (soybean) effect on crop grade” value with soybean was 1 (Herbicidal ratio of 5% or higher and lower than 20%). Further, the “b (directly sowed rice plant) effect on crop grade” value in the data set on rice is recorded as 5 (Herbicidal ratio of 90% or more (almost completely withered)). In addition, in the data set with wheat, the “e (wheat) effect on crop grade” value was 4 (Herbicidal ratio of 70% or higher and lower than 90%). Further, the “I: Avena fatua, herbicidal effect grade” value in the data set with Avena fatua is on record as 5 (Herbicidal ratio of 90% or more (almost completely withered)). Also, the “K: Lolium multiflorum Lam., herbicidal effect grade” value in the data set on Lolium multiflorum Lam. is given as 5 (Herbicidal ratio of 90% or more (almost completely withered)). Moreover, in the data set with Chenopodium album, the “O: Chenopodium album” value was 3 (Herbicidal ratio of 40% or higher and lower than 70%). The “c: corn, effect on crop grade” value in the data set on corn is given as 5 (Herbicidal ratio of 90% or more (almost completely withered)).
